The target in one test is T1, full length human TREX1 (Homo sapiens, UniProt Q9NSU2).
T1 construct: N-terminally His-Tev tagged full length human TREX1; His-Tev (His tag with TEV site) (N); made in house; host or cells: E. coli
T1 sequence (Q9NSU2 1-314): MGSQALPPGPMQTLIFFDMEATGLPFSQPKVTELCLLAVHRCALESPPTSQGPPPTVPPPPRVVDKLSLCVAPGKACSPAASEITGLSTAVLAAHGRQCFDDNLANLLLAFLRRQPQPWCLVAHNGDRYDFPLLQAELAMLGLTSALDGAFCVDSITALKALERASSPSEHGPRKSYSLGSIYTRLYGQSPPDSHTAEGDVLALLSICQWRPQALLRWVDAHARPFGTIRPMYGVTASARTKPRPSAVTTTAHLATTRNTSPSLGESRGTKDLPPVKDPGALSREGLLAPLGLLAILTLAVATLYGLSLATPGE
The experiment in a line: TREX1 Biochemical Assay (fluorescence assay, degradation of dsDNA substrate). The note with it: 150 pM TREX1, 60 nM dsDNA substrate, 25 minutes at room temperature. The procedure: Degradation of the dsDNA liberates free fluorophore to produce a fluorescent signal. Specifically, 7.5 μL of N-terminally His-Tev tagged full length human TREX1 (expressed in E. coli and purified in house) in reaction buffer (50 mM Tris (pH 7.4), 150 mM NaCl, 2 mM DTT, 0.1 mg/mL BSA, 0.01% (v/v) Tween-20 and either 100 mM MgCl2) was added to a 384-well Black ProxiPlate Plus (Perkin Elmer) which already contained compound (150 nL) at varying concentrations as a 10 point dose-response in DMSO. To this was added 7.5 μL of dsDNA substrate (Strand A: 5′ TEX615/GCT AGG CAG 3′; Strand B: 5′ CTG CCT AGC/IAbRQSp (Integrated DNA Technologies)) in reaction buffer. Final concentrations were 150 pM TREX1, 60 nM dsDNA substrate in reaction buffer with 1.0% DMSO (v/v). After 25 minutes at room temperature, reactions were quenched by the addition of 5 μL of stop buffer (same as reaction buffer plus 200 mM EDTA). Final concentrations in the quenched reaction were 112.5 pM TREX1, 45 nM DNA and 50 mM EDTA in a volume of 20 μL. After a 5-minute incubation at room temperature, plates were read in a laser sourced Envision (Perkin-Elmer), measuring fluorescence at 615 nm following excitation w/570 nm light. IC50 values were calculated by comparing the measured fluorescence at 615 nm ratio relative to control wells pre-quenched w/stop buffer (100% inhibition) and no inhibitor (0% inhibition) controls as using non-linear least square four parameter fits and either Genedata or GraphPad Prism (GraphPad Software, Inc.).

For test [1], the target named is T2, human TREX2 (residues M44-A279) (Homo sapiens, UniProt Q9BQ50).
T2 construct: human TREX2 (residues M44-A279, expressed in E. coli); His-Tev (His tag with TEV site) (N); made in house; host or cells: E. coli
T2 sequence (Q9BQ50 44-279 isoform Q9BQ50-1): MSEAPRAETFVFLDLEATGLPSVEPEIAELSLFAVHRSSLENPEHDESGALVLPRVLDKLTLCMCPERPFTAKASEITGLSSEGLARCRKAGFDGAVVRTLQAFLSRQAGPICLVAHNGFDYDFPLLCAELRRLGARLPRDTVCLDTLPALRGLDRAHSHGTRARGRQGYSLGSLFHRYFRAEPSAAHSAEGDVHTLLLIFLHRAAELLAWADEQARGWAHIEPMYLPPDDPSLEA
Description: TREX2 Biochemical Assay (fluorescence assay, degradation of dsDNA substrate). The note with it: 2.5 nM TREX2, 60 nM dsDNA substrate, 25 minutes at room temperature. The procedure:
Degradation of the dsDNA liberates free fluorophore to produce a fluorescent signal. Specifically, 7.5 μL of N-terminally His-Tev tagged human TREX2 (residues M44-A279, expressed in E. coli and purified in house) in reaction buffer (50 mM Tris (pH 7.4), 150 mM NaCl, 2 mM DTT, 0.1 mg/mL BSA, 0.01% (v/v) Tween-20 and 100 mM MgCl2) was added to a 384-well Black ProxiPlate Plus (Perkin Elmer) which already contained compound (150 nL) at varying concentrations as a 10 point dose-response in DMSO. To this was added 7.5 μL of dsDNA substrate (Strand A: 5′ TEX615/GCT AGG CAG 3′; Strand B: 5′ CTG CCT AGC/IAbRQSp (IDT)) in reaction buffer. Final concentrations were 2.5 nM TREX2, 60 nM dsDNA substrate in reaction buffer with 1.0% DMSO (v/v). After 25 minutes at room temperature, reactions were quenched by the addition of 5 μL of stop buffer (same as reaction buffer plus 200 mM EDTA). Final concentrations in the quenched reaction mixture were […] TREX2, 45 nM DNA and 50 mM EDTA in a volume of 20 μL. After a 5-minute incubation at room temperature, plates were read in a laser sourced Envision (Perkin-Elmer), measuring fluorescence at 615 nm following excitation w/570 nm light. IC50 values were calculated by comparing the measured fluorescence at 615 nm ratio relative to control wells pre-quenched w/stop buffer (100% inhibition) and no inhibitor (0% inhibition) controls as using non-linear least square four parameter fits and either Genedata or GraphPad Prism (GraphPad Software, Inc.).

As to `Cc1nc(-c2cn(C)nc2C)cc(N2CCC(O)(c3ccc(F)c(F)c3)CC2)n1` [Example 57, 4-(3,4-difluorophenyl)-1-(6-(1,3-dimethyl-1H-pyrazol-4-yl)-2-methylpyrimidin-4-yl)piperidin-4-ol], the IC50 (commonly the concentration needed to halve the response being measured) against full length human TREX1 was under 0.1 µM; in test [1] it was over 100 µM.

As to `Cc1noc(C)c1-c1cncc(N2CCC(O)(c3ccc(F)c(F)c3)CC2)n1` [Example 52, 4-(3,4-difluorophenyl)-1-(6-(3,5-dimethylisoxazol-4-yl)pyrazin-2-yl)piperidin-4-ol], the values for the concentration for half-maximal inhibition (IC50) (at full length human TREX1; in test [1]) were 1 to 10 µM and over 100 µM, respectively.

As to `OC1(c2ccc(F)cc2)CCN(c2nccc(-n3cccn3)n2)CC1` [Example 80, 1-(4-(1H-pyrazol-1-yl)pyrimidin-2-yl)-4-(4-fluorophenyl)piperidin-4-ol], the figures for the IC50 (against full length human TREX1; in test [1]) were 1 to 10 µM and over 100 µM, respectively.

As for `Cc1nn(C)cc1-c1cc(C(C)(C)O)cc(N2CCC(O)(c3ccc(F)c(F)c3)CC2)n1` [Example 45, 4-(3,4-difluorophenyl)-1-(6-(1,3-dimethyl-1H-pyrazol-4-yl)-4-(2-hydroxypropan-2-yl)pyridin-2-yl)piperidin-4-ol], the figures for the IC50 (against full length human TREX1; in test [1]) were under 0.1 µM and 10 to 100 µM, respectively.

In the case of `N#Cc1ccccc1-c1cncc(N2CCC(O)(c3ccc(F)cc3)CC2)n1` [Example 23, 2-(6-(4-(4-fluorophenyl)-4-hydroxypiperidin-1-yl)pyrazin-2-yl)benzonitrile], the IC50 is 1 to 10 µM on full length human TREX1 and over 100 µM in test [1].

Consider `Cc1nn(C)cc1-c1cc(C(N)=O)cc(N2CCC(O)(c3ccc(F)c(F)c3)CC2)n1` [Example 39, 2-(4-(3,4-difluorophenyl)-4-hydroxypiperidin-1-yl)-6-(1,3-dimethyl-1H-pyrazol-4-yl)isonicotinamide], for which the IC50 was under 0.1 µM on full length human TREX1 and 10 to 100 µM in test [1].

Turning to `Cc1nn(C(C)C)cc1-c1cncc(N2CCC(O)(c3ccc(F)c(F)c3)CC2)n1` [Example 48, 4-(3,4-difluorophenyl)-1-(6-(1-isopropyl-3-methyl-1H-pyrazol-4-yl)pyrazin-2-yl)piperidin-4-ol], the IC50 against full length human TREX1 was under 0.1 µM; in test [1], 10 to 100 µM.

With `Cc1ccc(-c2cncc(N3CCC(O)(c4ccc(F)cc4)CC3)n2)cn1` [Example 15, 4-(4-fluorophenyl)-1-(6-(6-methylpyridin-3-yl)pyrazin-2-yl)piperidin-4-ol], the figures for the IC50 (at full length human TREX1; in test [1]) were 0.1 to 1 µM and over 100 µM, respectively.

With `Cn1cc(-c2cncc(N3CCC(O)(c4ccc(F)c(F)c4)CC3)n2)c(C2CC2)n1` [Example 11, 1-(6-(3-cyclopropyl-1-methyl-1H-pyrazol-4-yl)pyrazin-2-yl)-4-(3,4-difluorophenyl)piperidin-4-ol], the concentration for half-maximal inhibition (IC50) against full length human TREX1 fell in the range of 0.1 to 1 µM; in test [1], 10 to 100 µM.

On to `Cc1nn(C)cc1-c1cncc(N2CC[C@@](O)(c3ccc(F)c(F)c3)C[C@H]2C)n1` (racemic) [Example 103, (rac)-trans-4-(3,4-difluorophenyl)-1-(6-(1,3-dimethyl-1H-pyrazol-4-yl)pyrazin-2-yl)-2-methylpiperidin-4-ol], for which the IC50 at full length human TREX1 is 1 to 10 µM; in test [1], over 100 µM.

Turning to `Cn1cc(-c2nccc(N3CCC(O)(c4ccc(F)cc4)CC3)n2)cn1` [Example 36, 4-(4-fluorophenyl)-1-(2-(1-methyl-1H-pyrazol-4-yl)pyrimidin-4-yl)piperidin-4-ol], the IC50 on full length human TREX1 is 0.1 to 1 µM; in test [1] it was over 100 µM.

On to `Cc1cc(-c2cn(C)nc2C)nc(N2CCC(O)(c3ccc(F)c(F)c3)CC2)c1` [Example 43], for which the IC50 was 0.1 to 1 µM at full length human TREX1 and over 100 µM in test [1].

On to `CNC(=O)c1ccc(-c2cncc(N3CCC(O)(c4ccc(F)cc4)CC3)n2)cc1` [Example 21, 4-(6-(4-(4-fluorophenyl)-4-hydroxypiperidin-1-yl)pyrazin-2-yl)-N-methylbenzamide], for which the IC50 on full length human TREX1 was 1 to 10 µM; in test [1], over 100 µM.

The values are drawn from patent US20220313701A1, “MODULATORS OF TREX1” (Constellation Pharmaceuticals, Inc., priority 2019, published 2022).
